Reference: ChEMBL document CHEMBL1201862, “PubChem BioAssay data set” (2004)
“And” between values parts separate entries of the source, which are not always exact repeats. Equal entries are not always repeated.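 Step 1: Grow cells in 96-well plates. Step 2: Expose to compound for 48 hours at 5 concentrations. Step 3: Interpolate endpoints linearly; if unreached, use highest concentration. GI50 = concentration required for 50% inhibition of growth.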 The source made the active and inactive calls. No stated cut-off is given here; in the data, active = GI50 up to about 1.1 µM and inactive = higher.

Key:
Assay in all cases: NCI tumour cell line growth inhibition, 48 h
[1] = system: 786-0
[2] = system: A549
[3] = system: CAKI-1
[4] = system: CCRF-CEM
[5] = system: EKVX
[6] = system: HOP-92
[7] = system: IGROV-1
[8] = system: K562
[9] = system: LOX IMVI
[10] = system: NCI-H226
[11] = system: NCI-H522
[12] = system: OVCAR-3
[13] = system: RXF 393
[14] = system: SF-268
[15] = system: SK-MEL-28
[16] = system: SNB-75
[17] = system: UO-31
[18] = system: MCF7

SMILES	GI50 [1]	GI50 [2]	GI50 [3]	GI50 [4]	GI50 [5]	GI50 [6]	GI50 [7]	GI50 [8]	GI50 [9]	GI50 [10]	GI50 [11]	GI50 [12]	GI50 [13]	GI50 [14]	GI50 [15]	GI50 [16]	GI50 [17]	GI50 [18]
COc1cc(/C=C/C(=O)c2sc(-n3nc(-c4ccccc4)cc3-c3ccccc3)nc2C)ccc1O	> 100 µM (inactive)	> 100 µM (inactive)	6.64 µM (inactive)	> 100 µM (inactive)	4.7 µM (inactive)	2.47 µM (inactive)	94.6 µM (inactive)	32.7 µM (inactive)	> 100 µM (inactive)	> 100 µM (inactive)	14.5 µM (inactive)	> 100 µM (inactive)	13 µM (inactive)	> 100 µM (inactive)	> 100 µM (inactive)	7.36 µM (inactive)	> 100 µM (inactive)	
CCOC(=O)c1cc2c3c(c(O)c(OC)c2s1)N(C(=O)c1cc2c4c(c(O)c(OC)c2s1)N(C(C)=O)CC4)CC3	36.6 µM (inactive)	> 100 µM (inactive)	> 100 µM (inactive)	> 100 µM (inactive)	> 100 µM (inactive)	29 µM (inactive)	> 100 µM (inactive)	> 100 µM (inactive)	> 100 µM (inactive)	50.4 µM (inactive)	> 100 µM (inactive)	24.4 µM (inactive)	54.1 µM (inactive)	> 100 µM (inactive)	> 100 µM (inactive)	23.4 µM (inactive)	64.4 µM (inactive)	
OC(c1ccccc1)(c1ccccc1)c1ccccn1	> 100 µM (inactive)	> 100 µM (inactive)	> 100 µM (inactive) and 85.7 µM (inactive)	> 100 µM (inactive)	> 100 µM (inactive)	> 100 µM (inactive)	> 100 µM (inactive)	> 100 µM (inactive)	> 100 µM (inactive)	> 100 µM (inactive)	> 100 µM (inactive)	> 100 µM (inactive)	> 100 µM (inactive)	> 100 µM (inactive)	> 100 µM (inactive)	> 100 µM (inactive) and 63.7 µM (inactive)	> 100 µM (inactive)	
C=C(CN(CC(=C)C(=O)c1ccccc1)C(C)(C)C)C(=O)c1ccccc1	11.3 µM (inactive)	28.4 µM (inactive)	4.28 µM (inactive)	1.5 µM (inactive)	18.9 µM (inactive)	5.62 µM (inactive)	20.5 µM (inactive)	3.01 µM (inactive)	16.4 µM (inactive)	24 µM (inactive)	2.86 µM (inactive)	13.8 µM (inactive)	5.36 µM (inactive)	12.2 µM (inactive)	16.5 µM (inactive)	12.8 µM (inactive)	11.7 µM (inactive)	
CC1(C)C(=O)C(O)=CC2C1=CCC1C2(C)C(=O)CC2(C)C(C(C)(O)C(=O)CC(O)C(C)(C)O)C(O)CC12C (centres undefined)	2.45 µM (inactive)	3.04 µM (inactive)	2.12 µM (inactive)	3.01 µM (inactive)	10 µM (inactive)	2.38 µM (inactive)	2.64 µM (inactive)	4.66 µM (inactive)	2.5 µM (inactive)	2.86 µM (inactive)	2.71 µM (inactive)	3.28 µM (inactive)	2.56 µM (inactive)	3.11 µM (inactive)	2.69 µM (inactive)	0.989 µM (active)	2.02 µM (inactive)	
COc1ccc(C2=C(OC(C)=O)c3cccn3-c3ccc(Cl)cc3S2)cc1	3.85 µM (inactive)	5.51 µM (inactive)	7.19 µM (inactive)	3.43 µM (inactive)	6.67 µM (inactive)	1.3 µM (inactive)	6.28 µM (inactive)	2.4 µM (inactive)	5.37 µM (inactive)				9.44 µM (inactive)	7.55 µM (inactive)	4.75 µM (inactive)	3.44 µM (inactive)		3.35 µM (inactive)
